Source: the supplement of paper PMC10307832

Experiments:
Test in all cases: relative viability (nuclei count vs DMSO), 5 days (fraction); higher = more cells survive
[1] = compound: C[C@@]1(C(=O)Nc2ccc(F)nc2)CCCN1c1nc(Nc2cc(C3CC3)n[nH]2)c2cccn2n1 + O=C(CCCCCCC(=O)Nc1ccccc1)NO [Vorinostat] (partner 1 µM)
Method in brief: (§1)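 Each reported value is a median over duplicate plates. It expresses relative viability: treated-well nuclei count divided by vehicle-well nuclei count. Lung cancer cell lines in 1536-well plates were dosed by pin tool a day after seeding, alone with one drug or with a fixed anchor-drug dose plus five library-drug doses (not always all listed) in √10 steps, and nuclei were counted after 5 days.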

Motesanib + Alpelisib = compound: CC1(C)CNc2cc(NC(=O)c3cccnc3NCc3ccncc3)ccc21 [Motesanib] + Cc1nc(NC(=O)N2CCC[C@H]2C(N)=O)sc1-c1ccnc(C(C)(C)C(F)(F)F)c1 [Alpelisib] (partner 2 µM)
Method in brief: as §1

Motesanib + Phenformin = compound: CC1(C)CNc2cc(NC(=O)c3cccnc3NCc3ccncc3)ccc21 [Motesanib] + N=C(N)NC(=N)NCCc1ccccc1 [Phenformin] (partner 250 µM)
Method in brief: as §1

Motesanib + Trametinib = compound: CC1(C)CNc2cc(NC(=O)c3cccnc3NCc3ccncc3)ccc21 [Motesanib] + CC(=O)Nc1cccc(-n2c(=O)n(C3CC3)c(=O)c3c(Nc4ccc(I)cc4F)n(C)c(=O)c(C)c32)c1 [Trametinib] (partner 0.02 µM)
Method in brief: as §1

| Cell Line | relative viability ([1]; first compound 0.04 µM) | relative viability ([1]; first compound 0.1265 µM) | relative viability ([1]; first compound 0.4 µM) | relative viability ([1]; first compound 1.265 µM) | relative viability (Motesanib + Alpelisib; first compound 0.01 µM) | relative viability (Motesanib + Alpelisib; first compound 0.03162 µM) | relative viability (Motesanib + Alpelisib; first compound 0.1 µM) | relative viability (Motesanib + Alpelisib; first compound 0.3162 µM) | relative viability (Motesanib + Alpelisib; first compound 1 µM) | relative viability (Motesanib + Phenformin; first compound 0.01 µM) | relative viability (Motesanib + Phenformin; first compound 0.03162 µM) | relative viability (Motesanib + Phenformin; first compound 0.1 µM) | relative viability (Motesanib + Phenformin; first compound 0.3162 µM) | relative viability (Motesanib + Phenformin; first compound 1 µM) | relative viability (Motesanib + Trametinib; first compound 0.01 µM) | relative viability (Motesanib + Trametinib; first compound 0.03162 µM) | relative viability (Motesanib + Trametinib; first compound 0.1 µM) | relative viability (Motesanib + Trametinib; first compound 0.3162 µM) | relative viability (Motesanib + Trametinib; first compound 1 µM) |
| --- | --- | --- | --- | --- | --- | --- | --- | --- | --- | --- | --- | --- | --- | --- | --- | --- | --- | --- | --- |
| 201T | 0.858 | 0.755 | 0.634 | 0.62 | 1.08 | 1.05 | 1.01 | 0.857 | 1.06 | 0.377 | 0.44 | 0.485 | 0.48 | 0.427 | 0.743 | 0.71 | 0.736 | 0.722 | 0.742 |
| A549 | – | – | – | – | 0.785 | 0.866 | 0.728 | 0.779 | 0.909 | 0.0998 | 0.109 | 0.165 | 0.178 | 0.247 | – | – | – | – | – |
| A-427 | 0.93 | 0.857 | 0.864 | 0.49 | 1.12 | 1.08 | 1.05 | 1.09 | 1.04 | 0.239 | 0.294 | 0.319 | 0.374 | 0.323 | 0.742 | 0.702 | 0.774 | 0.775 | 0.762 |
| ABC-1 | 1.23 | 0.819 | 0.708 | 0.409 | 1.02 | 0.995 | 1.24 | 0.974 | 1.18 | 0.238 | 0.229 | 0.223 | 0.229 | 0.242 | – | – | – | – | – |
| BEN | 0.537 | 0.492 | 0.467 | 0.439 | 1.07 | 1.08 | 0.897 | 0.972 | 1.18 | 0.257 | 0.259 | 0.229 | 0.253 | 0.272 | 0.996 | 1.01 | 0.983 | 1.01 | 1.1 |
| CAL-12T | 0.574 | 0.567 | 0.461 | 0.33 | 1.22 | 1.31 | 1.26 | 1.44 | 1.11 | 0.562 | 0.487 | 0.61 | 0.627 | 0.534 | 0.324 | 0.316 | 0.33 | 0.402 | 0.419 |
| COR-L23 | 0.345 | 0.323 | 0.115 | 0.109 | 0.719 | 0.783 | 0.802 | 0.736 | 0.781 | 0.468 | 0.456 | 0.494 | 0.531 | 0.43 | 0.352 | 0.654 | 0.602 | 0.708 | 0.74 |
| COR-L 105 | 0.845 | 0.611 | 0.579 | 0.604 | 0.872 | 1.16 | 0.992 | 0.79 | 1.26 | 0.485 | 0.499 | 0.538 | 0.573 | 0.463 | 0.451 | 0.383 | 0.41 | 0.422 | 0.448 |
| Calu-6 | – | – | – | – | 0.984 | 0.931 | 0.928 | 1.02 | 1.03 | – | – | – | – | – | – | – | – | – | – |
| ChaGo-K-1 | 0.713 | 0.636 | 0.626 | 0.671 | – | – | – | – | – | 0.473 | 0.436 | 0.509 | 0.499 | 0.528 | 0.894 | 0.889 | 0.91 | 0.942 | 0.95 |
| EBC-1 | – | – | – | – | 0.795 | 0.914 | 0.899 | 0.847 | 0.925 | – | – | – | – | – | – | – | – | – | – |
| EKVX | 0.616 | 0.648 | 0.509 | 0.684 | 0.778 | 0.883 | 0.875 | 0.922 | 0.895 | 0.225 | 0.231 | 0.242 | 0.248 | 0.24 | 0.303 | 0.414 | 0.344 | 0.459 | 0.522 |
| EMC-BAC-2 | 0.37 | 0.343 | 0.304 | 0.178 | 0.76 | 0.742 | 0.768 | 0.731 | 0.704 | 0.527 | 0.507 | 0.581 | 0.56 | 0.539 | 0.756 | 0.909 | 0.861 | 0.797 | 0.948 |
| EPLC-272H | 0.578 | 0.234 | 0.336 | 0.406 | 0.908 | 1.12 | 0.898 | 0.897 | 0.914 | 0.253 | 0.333 | – | 0.338 | 0.247 | 0.287 | 0.289 | 0.286 | 0.299 | 0.341 |
| H3255 | 0.852 | 0.816 | 0.815 | 0.829 | 0.78 | 0.7 | 0.762 | 0.684 | 0.771 | 0.357 | 0.367 | 0.364 | 0.394 | 0.35 | 0.533 | 0.681 | 0.684 | 0.626 | 0.67 |
| HARA | 0.364 | 0.233 | 0.31 | 0.433 | 0.808 | 0.852 | 0.815 | 0.943 | 0.831 | 0.479 | 0.433 | 0.435 | 0.431 | 0.359 | 0.649 | 0.454 | 0.598 | 0.918 | 0.441 |
| HCC-15 | 0.689 | 0.51 | 0.555 | 0.774 | 0.97 | 0.885 | 0.969 | 0.972 | 0.931 | 0.416 | 0.376 | 0.497 | 0.527 | 0.503 | 0.377 | 0.335 | 0.364 | 0.406 | 0.376 |
| HCC-44 | 1.08 | 1.02 | 0.887 | 1.08 | 0.771 | 0.774 | 0.862 | 0.785 | 0.827 | 0.129 | 0.174 | 0.252 | 0.309 | 0.209 | 1.01 | 1.06 | 1.05 | 1.12 | 1.19 |
| HCC-78 | 0.33 | 0.491 | 0.245 | 0.327 | 0.337 | 0.304 | 0.35 | 0.356 | 0.333 | 0.605 | 0.73 | 0.715 | 0.822 | 0.707 | 0.653 | 0.671 | 0.701 | – | 0.735 |
| HCC-366 | 0.395 | 0.315 | 0.2 | 0.0599 | 0.445 | 0.422 | 0.449 | 0.424 | 0.321 | 0.628 | 0.53 | 0.619 | 0.643 | 0.587 | 0.396 | 0.302 | 0.282 | 0.385 | 0.334 |
